Data on one compound can be found in patent publication US12428412B2 (DANA-FARBER CANCER INSTITUTE, INC., priority 2018, dated 2025).

Data set [1] concerns CRBN k/o cell lines. Briefly: Cell viability in CRBN knockout Kelly cell lines. The data set is classed as cell-based. The procedure: CPD 1 was tested in CRBN knockout (k/o) Kelly cell lines. The experimental protocol is the same as in Example 24.
Data set [2] concerns the target T1, HAT (EP300) domain (Homo sapiens, UniProt Q09472).
T1 sequence (Q09472 1287-1663 limits assumed): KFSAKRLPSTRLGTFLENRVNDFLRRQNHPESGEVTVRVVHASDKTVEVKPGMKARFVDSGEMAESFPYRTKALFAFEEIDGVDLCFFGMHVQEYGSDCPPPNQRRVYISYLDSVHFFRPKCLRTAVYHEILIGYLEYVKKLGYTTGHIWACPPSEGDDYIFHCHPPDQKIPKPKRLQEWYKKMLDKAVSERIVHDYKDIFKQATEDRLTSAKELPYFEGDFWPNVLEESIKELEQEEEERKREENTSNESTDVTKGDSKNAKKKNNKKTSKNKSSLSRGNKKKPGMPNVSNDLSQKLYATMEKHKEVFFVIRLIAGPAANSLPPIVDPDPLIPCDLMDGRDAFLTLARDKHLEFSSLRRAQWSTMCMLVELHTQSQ
In words: AlphaScreen assay, HAT (EP300) domain. The class given is binding. As for the experimental part:
The AlphaScreen™ assay was performed in 384-well plate format using white AlphaPlate (PerkinElmer®, USA), and transfer of pre-diluted compound (100 nL) was performed using a Janus Workstation (PerkinElmer®, USA). All subsequent steps were carried out in assay buffer (50 mM 4-(2-hydroxyethyl)-1-piperazineethanesulfonic acid (HEPES), pH 7.5, 0.1% (wt/vol) bovine serum albumin (BSA) and 0.01% (vol/vol) Tween-20). In brief, 10 μL of assay buffer containing enzyme (2 nM Final) was pre-incubated for 15 min with dilutions of compound. The enzyme reaction was initiated by the addition of substrate (5 μL) consisting of acetyl Co-A 2-OG (5 μM Final).
FAS final concentration was 10 μM. Histone tail-GGK Biotin final concentration was 100 nM Final. The enzyme reaction was allowed to proceed for 30 minutes and was stopped by the addition of 5 μL of assay buffer containing ethylenediaminetetraacetic acid (EDTA) (40 mM) and NaCl (1200 mM). The final concentration of dimethyl sulfoxide (DMSO) was 1%. Streptavidin donor beads (0.08 mg/mL) and protein-A-conjugated acceptor beads (0.08 mg/mL) were preincubated for 1 h with antibody to methyl mark (300 ng/mL Final), and the presence of histone H3 product acetylation mark was detected using the preincubated AlphaScreen™ beads (5 μL). Detection was allowed to proceed for 2 hours at rt, and the assay plates were read on the Envision™ 2104 plate reader. Data were normalized to the (no-enzyme) control, and the IC50 values were determined via nonlinear regression curve fit using GraphPad Prism (FIG. 4E-FIG. 4H).
AlphaScreen™ assay was used to determine the binding of inventive degrader compound toward both CRBN and HAT domain. The experimental protocol is the same as in Example 26.
Background: Alpha assays give light when donor and acceptor beads are brought close together.

The test system of data set [3] is Kelly cell lines xenograft. In words: Xenograft model of Kelly cell lines. The note with it: 40 mpk IP from day 10. The class given is in vivo. An excerpt: The xenograft model of Kelly cell lines was used to assess the in vivo efficacy. The Kelly cells were implanted 2 M into animals. The treatment started with day 10 at 40 mpk IP.
Data set [4] relates to Kelly cells. In words: Colony formation assay, Kelly cells. The class given is cell-based. The note with it: 10 days. The text has this:
The experimental method for the colony formation assay is as described in Durbin et al., Nat Genet. 50(9):1240-60 (2018).

For data set [5], the system named is H3K27Ac. In words: Immunohistochemistry (IHC) staining of liver from MTD study, H3K27Ac. The data set is classed as in vivo. As to conditions: normal mice, 40 mpk, 14-day treatment. An excerpt:
Immunohistochemistry (IHC) staining was used to examine a liver from MTD study. […] No changes in CBP and H3K27Ac levels were observed.

Data set [6] deals with MM.1S cells. Briefly: 4-day growth inhibition assay (ATPlite / cell counting kit), MM.1S cells. The data set is classed as cell-based. The note with it: 0-10 μM. As for the experimental part: An aliquot of the ATP standard solution (ATPlite™ 1000 assay kit, PerkinElmer®, USA) was used to prepare a dilution series in water. A series of 100 μL of complete culture medium was pipetted without cells into the wells of the plate. To each well was added 50 μL of the mammalian cell lysis solution, and the plate was shaken for 5 minutes in an orbital shaker at 700 rpm. 10 μL of the ATP dilution series was added to the wells, and the plate was shaken for 5 minutes in an orbital shaker at 700 rpm. 50 μL of the substrate solution was added and the plate was shaken for 5 minutes in an orbital shaker at 700 rpm. The plate dark adapted the plate for 10 minutes prior to measuring the luminescence and then preparing a standard curve.
Background: In ATP-based viability assays light output follows the ATP content of the culture.

The nature of data set [7]: Tolerability in human CRBN knock in mice. The data set is classed as in vivo. The procedure: CPD 1 was tested in mice for maximum tolerated dose (MTD) (FIG. 6A). The mice were treated with 10 mg/kg (mpk), 20 mpk, and 40 mpk with 4 mice in each group. The compound was also tested in human CRBN knock in mice, the blood samples were collected after 21 day treatment. All the tested blood samples were normal.

The target in data set [8] is T2, EP300 (Homo sapiens, UniProt Q09472).
T2 construct: Whole cell lysates were collected using ice cold lysis buffer; endogenous in cells; host or cells: Kelly neuroblastoma cells (incl. Ch2.2, LACZ and CRBN knockout lines)
In words: Proteomics analysis in Kelly NB cells, EP300. The note with it: 500 nM, 6 hours and 36 hours. The data set is classed as cell-based. The procedure: FIG. 9C is a plot of the proteomics analysis results after treating Kelly NB cells with CPD 1 (500 nM) at 6 hours and 36 hours.

T2 sequence (Q09472 whole entry): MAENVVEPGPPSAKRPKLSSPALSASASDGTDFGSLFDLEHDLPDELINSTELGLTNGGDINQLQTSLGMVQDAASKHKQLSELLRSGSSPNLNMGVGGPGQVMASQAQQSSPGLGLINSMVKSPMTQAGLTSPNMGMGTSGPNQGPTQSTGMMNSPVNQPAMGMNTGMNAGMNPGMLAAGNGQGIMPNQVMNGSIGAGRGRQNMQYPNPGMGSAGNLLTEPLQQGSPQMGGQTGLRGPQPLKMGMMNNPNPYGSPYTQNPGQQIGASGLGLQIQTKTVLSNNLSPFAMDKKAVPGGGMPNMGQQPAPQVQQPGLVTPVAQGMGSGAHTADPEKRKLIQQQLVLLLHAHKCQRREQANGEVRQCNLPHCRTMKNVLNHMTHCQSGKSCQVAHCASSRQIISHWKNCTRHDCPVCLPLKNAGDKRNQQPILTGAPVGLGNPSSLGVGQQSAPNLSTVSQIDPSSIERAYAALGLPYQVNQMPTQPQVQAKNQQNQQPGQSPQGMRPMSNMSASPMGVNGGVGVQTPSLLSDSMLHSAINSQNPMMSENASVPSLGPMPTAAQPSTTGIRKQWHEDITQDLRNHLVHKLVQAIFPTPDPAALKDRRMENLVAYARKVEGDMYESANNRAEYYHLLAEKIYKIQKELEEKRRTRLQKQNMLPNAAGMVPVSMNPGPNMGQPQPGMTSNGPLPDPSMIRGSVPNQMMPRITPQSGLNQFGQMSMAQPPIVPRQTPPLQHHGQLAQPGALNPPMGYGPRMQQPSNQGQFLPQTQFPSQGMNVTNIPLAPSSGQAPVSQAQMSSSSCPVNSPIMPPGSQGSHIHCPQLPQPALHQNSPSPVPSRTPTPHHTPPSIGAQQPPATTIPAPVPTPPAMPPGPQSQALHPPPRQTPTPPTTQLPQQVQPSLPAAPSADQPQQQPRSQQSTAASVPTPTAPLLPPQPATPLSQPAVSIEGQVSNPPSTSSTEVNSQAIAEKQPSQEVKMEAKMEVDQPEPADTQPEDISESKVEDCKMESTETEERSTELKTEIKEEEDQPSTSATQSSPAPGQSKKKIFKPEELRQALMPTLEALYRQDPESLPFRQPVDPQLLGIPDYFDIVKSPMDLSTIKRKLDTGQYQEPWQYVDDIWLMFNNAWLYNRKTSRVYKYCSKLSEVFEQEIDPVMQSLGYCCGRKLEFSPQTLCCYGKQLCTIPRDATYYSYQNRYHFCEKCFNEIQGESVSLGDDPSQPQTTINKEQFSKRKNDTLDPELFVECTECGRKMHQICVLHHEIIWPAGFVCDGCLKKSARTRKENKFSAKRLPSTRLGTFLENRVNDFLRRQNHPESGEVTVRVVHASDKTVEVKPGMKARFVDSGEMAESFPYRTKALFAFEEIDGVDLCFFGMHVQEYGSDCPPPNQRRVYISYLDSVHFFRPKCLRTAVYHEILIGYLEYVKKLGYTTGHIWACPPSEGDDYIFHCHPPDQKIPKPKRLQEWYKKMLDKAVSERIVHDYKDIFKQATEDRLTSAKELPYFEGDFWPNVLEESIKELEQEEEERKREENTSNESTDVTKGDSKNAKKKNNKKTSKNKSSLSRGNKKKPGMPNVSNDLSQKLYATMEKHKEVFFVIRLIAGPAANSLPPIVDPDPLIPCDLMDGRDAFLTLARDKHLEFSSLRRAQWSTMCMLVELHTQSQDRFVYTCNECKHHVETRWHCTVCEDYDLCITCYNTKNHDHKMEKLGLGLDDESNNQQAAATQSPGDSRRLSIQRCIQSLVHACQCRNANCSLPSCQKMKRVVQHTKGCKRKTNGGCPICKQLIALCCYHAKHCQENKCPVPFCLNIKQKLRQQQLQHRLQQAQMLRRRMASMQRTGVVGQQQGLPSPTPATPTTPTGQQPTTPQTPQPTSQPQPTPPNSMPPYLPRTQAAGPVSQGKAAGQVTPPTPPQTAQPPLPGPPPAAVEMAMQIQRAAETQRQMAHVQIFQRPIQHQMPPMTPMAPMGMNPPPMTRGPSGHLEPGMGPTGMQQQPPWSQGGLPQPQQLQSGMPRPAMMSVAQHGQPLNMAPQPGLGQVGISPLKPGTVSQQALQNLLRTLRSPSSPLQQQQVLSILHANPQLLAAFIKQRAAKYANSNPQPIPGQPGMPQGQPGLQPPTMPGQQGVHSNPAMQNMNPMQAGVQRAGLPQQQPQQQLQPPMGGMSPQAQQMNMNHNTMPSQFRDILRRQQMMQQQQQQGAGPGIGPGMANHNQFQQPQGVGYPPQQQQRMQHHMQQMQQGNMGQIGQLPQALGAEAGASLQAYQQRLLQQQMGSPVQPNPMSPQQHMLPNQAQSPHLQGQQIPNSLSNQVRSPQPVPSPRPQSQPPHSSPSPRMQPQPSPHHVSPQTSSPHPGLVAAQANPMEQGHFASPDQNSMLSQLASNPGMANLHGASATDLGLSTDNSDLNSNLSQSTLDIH

As for `C[C@H](N(Cc1ccc(F)cc1)C(=O)CN1C(=O)O[C@@]2(CCc3cc(NC(=O)CCCCCCCCCCCNc4ccc5c(c4)C(=O)N(C4CCC(=O)NC4=O)C5=O)ccc32)C1=O)C(F)(F)F` (stereo partly drawn) [CPD 1, 12-((2-(2,6-dioxopiperidin-3-yl)-1,3-dioxoisoindolin-5-yl)amino)-N—((R)-3′-(2-((4-fluorobenzyl)((S)-1,1,1-trifluoropropan-2-yl)amino)-2-oxoethyl)-2′,4′-dioxo-2,3-dihydrospiro[indene-1,5′-oxazolidin]-5-yl)dodecanamide], the “cell growth inhibition in CRBN k/o cell lines” value in data set [1] is given as “did not affect CRBN k/o cell lines”. In addition, the “binding to HAT (EP300) domain” value in data set [2] is “bound and bind”. For the same compound, in data set [3], the survival of animals result is given as “extended the survival of animals” and the tumor progression result is on record as “reduced tumor progression”. Also, the “Kelly cell growth, colony formation” value in data set [4] is “inhibited the Kelly cell growth in a dose dependent manner”. In addition, the “H3K27Ac level in liver tissue” value in data set [5] was “No changes”. In addition, in data set [6], the “growth inhibition compared with A485” value is given as “outperformed inhibitor A485”. In data set [7] (human CRBN knock in mice, after 21 day treatment), the blood samples entry is “normal”. For the same compound, in data set [7] (humanized CRBN mice), the toxicity result is on record as “no toxicity was observed”. The “EP300 degradation (proteomics)” value in data set [8] is “selectively and significantly degraded”.
